Experimental data published in patent US9416115B2, “Fused heterocyclic compounds as ion channel modulators” (Gilead Sciences, Inc., priority 2013, dated 2016).
Where two headings read alike, the source gives them in different places.

How the values were obtained:
[1] = target: wild-type human cardiac sodium channel, hNav1.5 (Homo sapiens, UniProt Q14524); experiment: Peak INa screening assay (tonic block and use-dependent block); format: cell-based
Summary of the method: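 HEK293 cells stably expressing hNav1.5 (no beta subunits), automated whole-cell patch clamp at 23-25° C, 40 mM Na+ bath (choline substitution), pH 7.35. Compound at 1 or 3 μM, added twice then 200 s equilibration; tonic block by steps to −20 mV from −100 mV at 0.1 Hz, use-dependent block at pulse 50 of a 3 Hz train, rundown-corrected versus compound-free.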

hNaV1.2 (SCN2A) = target: T1, hNaV1.2 (SCN2A) (Homo sapiens, UniProt Q99250); experiment: Use-dependent inhibition of the CNS Nav1.2 sodium channel; format: cell-based; conditions: use-dependent block, 25 Hz, pulse 20, read-out: Nav1.2 UDB 25 Hz 10 uM
T1 construct: expressed in transfected cells
T1 sequence (Q99250 whole entry): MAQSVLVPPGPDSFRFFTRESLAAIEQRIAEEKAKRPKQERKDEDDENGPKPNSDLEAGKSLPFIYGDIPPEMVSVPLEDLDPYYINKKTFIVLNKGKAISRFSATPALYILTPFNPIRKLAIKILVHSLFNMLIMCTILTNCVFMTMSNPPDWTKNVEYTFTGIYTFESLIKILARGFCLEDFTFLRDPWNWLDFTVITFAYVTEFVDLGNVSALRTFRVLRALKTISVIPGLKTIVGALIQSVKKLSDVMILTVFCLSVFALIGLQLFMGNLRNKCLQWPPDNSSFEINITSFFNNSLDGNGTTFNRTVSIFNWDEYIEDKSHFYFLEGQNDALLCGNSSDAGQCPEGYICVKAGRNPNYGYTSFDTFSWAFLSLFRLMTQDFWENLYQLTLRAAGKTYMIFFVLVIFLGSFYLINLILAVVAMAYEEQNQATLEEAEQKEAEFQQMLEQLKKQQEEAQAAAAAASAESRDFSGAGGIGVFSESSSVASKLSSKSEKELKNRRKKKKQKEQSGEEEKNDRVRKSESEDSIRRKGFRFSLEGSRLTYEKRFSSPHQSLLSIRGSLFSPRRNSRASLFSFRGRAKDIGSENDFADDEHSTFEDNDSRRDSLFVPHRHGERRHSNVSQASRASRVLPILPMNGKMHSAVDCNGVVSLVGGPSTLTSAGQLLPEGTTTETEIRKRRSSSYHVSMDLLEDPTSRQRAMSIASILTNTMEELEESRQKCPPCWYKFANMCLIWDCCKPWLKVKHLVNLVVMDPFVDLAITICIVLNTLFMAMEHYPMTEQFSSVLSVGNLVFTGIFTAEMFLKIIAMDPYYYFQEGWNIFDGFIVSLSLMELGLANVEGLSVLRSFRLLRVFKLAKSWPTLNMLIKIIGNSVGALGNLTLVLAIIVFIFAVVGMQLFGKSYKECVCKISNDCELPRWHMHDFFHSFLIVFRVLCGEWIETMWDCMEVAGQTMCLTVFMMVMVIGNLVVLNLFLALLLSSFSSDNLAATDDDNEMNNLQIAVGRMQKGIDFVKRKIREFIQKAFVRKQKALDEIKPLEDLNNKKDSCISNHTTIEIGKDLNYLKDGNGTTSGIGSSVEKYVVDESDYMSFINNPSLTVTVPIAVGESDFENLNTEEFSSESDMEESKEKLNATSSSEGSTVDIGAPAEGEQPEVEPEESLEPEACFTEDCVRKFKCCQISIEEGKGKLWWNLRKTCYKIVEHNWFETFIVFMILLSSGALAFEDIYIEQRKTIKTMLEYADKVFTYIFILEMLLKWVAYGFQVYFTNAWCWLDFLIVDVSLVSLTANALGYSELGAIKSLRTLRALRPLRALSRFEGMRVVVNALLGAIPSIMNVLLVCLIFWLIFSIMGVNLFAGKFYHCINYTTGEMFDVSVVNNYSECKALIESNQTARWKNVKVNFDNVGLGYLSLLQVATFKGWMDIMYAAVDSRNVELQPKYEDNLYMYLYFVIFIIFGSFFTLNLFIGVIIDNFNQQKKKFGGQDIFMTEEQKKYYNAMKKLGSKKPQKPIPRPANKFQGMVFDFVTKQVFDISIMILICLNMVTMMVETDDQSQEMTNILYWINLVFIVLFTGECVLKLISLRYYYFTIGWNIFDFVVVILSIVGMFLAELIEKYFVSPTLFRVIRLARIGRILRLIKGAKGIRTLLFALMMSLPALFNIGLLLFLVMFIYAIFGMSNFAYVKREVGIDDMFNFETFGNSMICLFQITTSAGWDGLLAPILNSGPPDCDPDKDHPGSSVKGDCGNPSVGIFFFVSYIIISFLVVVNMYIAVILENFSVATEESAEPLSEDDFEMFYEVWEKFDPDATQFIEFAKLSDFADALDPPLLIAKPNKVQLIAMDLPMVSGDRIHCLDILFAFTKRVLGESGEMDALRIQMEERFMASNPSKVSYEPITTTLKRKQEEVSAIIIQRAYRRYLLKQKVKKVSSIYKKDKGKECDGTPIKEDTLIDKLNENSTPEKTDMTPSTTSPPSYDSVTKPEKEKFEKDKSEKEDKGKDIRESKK
T1 sequence (Q07699 19-218 partner): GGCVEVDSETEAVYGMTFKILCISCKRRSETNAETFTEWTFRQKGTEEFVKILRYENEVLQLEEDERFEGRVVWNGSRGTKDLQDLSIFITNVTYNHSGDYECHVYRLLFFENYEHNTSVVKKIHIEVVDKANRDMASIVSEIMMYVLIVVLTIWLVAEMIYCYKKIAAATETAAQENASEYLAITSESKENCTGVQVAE
T1 sequence (O60939 30-215 partner): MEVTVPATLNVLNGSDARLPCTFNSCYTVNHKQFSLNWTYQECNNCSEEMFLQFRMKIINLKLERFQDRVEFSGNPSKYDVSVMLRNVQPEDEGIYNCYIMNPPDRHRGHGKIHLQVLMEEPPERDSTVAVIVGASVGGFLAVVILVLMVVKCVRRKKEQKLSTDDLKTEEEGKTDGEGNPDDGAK
Experimental: HEK-293 cells stably expressing wild-type (WT) hNaV1.2 (SCN2A NCBI # NM_021007.2, SCN1B NCBI # NM_001037.4, SCN2B NCBI # NM_004588.2) were used to record INa. Cells are maintained with standard tissue culture procedures and stable channel expression is maintained with 800 ug/mL G418 and 3 ug/mL Puromycin in the culture medium. Unless otherwise noted, all reagents are purchased from Sigma-Aldrich (St Louis, Mo., U.S.A.).
Assays measuring Use-Dependent Block (UDB) of Nav1.2 are performed on an automated electrophysiology platform, QPatch 16X or QPatch HT (Sophion Bioscience, Copenhagen, Denmark), using the whole cell patch clamp technique to measure currents through the cell membrane. Series resistance compensation is set to 100% and series resistance and whole-cell compensation are performed automatically. Currents stored in the Sophion Bioscience Oracle database (Sophion Bioscience, Copenhagen, Denmark). Analysis is performed using QPatch Assay software and data are compiled in Excel 2010 (Microsoft, Seattle, Wash., U.S.A.).
The internal (pipette) solution consists of (in mM) 105 CsF, 10 NaF, 20 CsCl, 2 EGTA, 10 HEPES, 10 Dextrose with a pH of 7.35 and osmolarity of 300 mOsmol/kg. The external (bath) solution contains in (mM): 145 NaCl, 4 KCl, 1.8 CaCl2, 1 MgCl2, 10 dextrose, 10 HEPES, with a pH of 7.35 and osmolarity of 310 mOsmol/kg. Experiments are carried out at 23-25° C.
Compound stocks are routinely made by the Gilead Sample Bank in vials to 10 mM in dimethyl sulfoxide (DMSO). In some cases, when compounds are not soluble in DMSO, they are made in 100% ethanol. Stocks are sonicated as necessary. […]
Cells are allowed to stabilize for 10 min after establishment of the whole-cell configuration before current is measured. The test compound is applied 2 times at 60 second intervals. After the second compound addition, a 200 second wait period was imposed to allow for equilibration. Leak currents are subtracted by using an online P/4 procedure and all currents are low-pass Bessel filtered at 5 kHz and digitized at […].
Results are presented as mean percentage inhibition.
Use-dependent block of Nav1.2 peak current is measured during pulse number 20 of a voltage pulse train (0 mV, 20 ms, 20 pulses, 25 Hz) from a holding potential of −120 mV.
Currents are normalized to the peak current recorded in response to the first pulse in each frequency train. The voltage protocol for UDB was performed in the absence and presence of compound and percentage inhibition was calculated with respect to the compound free condition.

[2] = tonic block of Peak INa, 0.1 Hz, holding -100 mV, read-out: Peak TB 3 uM
[3] = use-dependent block of Peak INa, 3 Hz, pulse 50, read-out: Peak UDB 3 Hz 3 uM

Sequence of wild-type human cardiac sodium channel, hNav1.5 (Q14524 whole entry): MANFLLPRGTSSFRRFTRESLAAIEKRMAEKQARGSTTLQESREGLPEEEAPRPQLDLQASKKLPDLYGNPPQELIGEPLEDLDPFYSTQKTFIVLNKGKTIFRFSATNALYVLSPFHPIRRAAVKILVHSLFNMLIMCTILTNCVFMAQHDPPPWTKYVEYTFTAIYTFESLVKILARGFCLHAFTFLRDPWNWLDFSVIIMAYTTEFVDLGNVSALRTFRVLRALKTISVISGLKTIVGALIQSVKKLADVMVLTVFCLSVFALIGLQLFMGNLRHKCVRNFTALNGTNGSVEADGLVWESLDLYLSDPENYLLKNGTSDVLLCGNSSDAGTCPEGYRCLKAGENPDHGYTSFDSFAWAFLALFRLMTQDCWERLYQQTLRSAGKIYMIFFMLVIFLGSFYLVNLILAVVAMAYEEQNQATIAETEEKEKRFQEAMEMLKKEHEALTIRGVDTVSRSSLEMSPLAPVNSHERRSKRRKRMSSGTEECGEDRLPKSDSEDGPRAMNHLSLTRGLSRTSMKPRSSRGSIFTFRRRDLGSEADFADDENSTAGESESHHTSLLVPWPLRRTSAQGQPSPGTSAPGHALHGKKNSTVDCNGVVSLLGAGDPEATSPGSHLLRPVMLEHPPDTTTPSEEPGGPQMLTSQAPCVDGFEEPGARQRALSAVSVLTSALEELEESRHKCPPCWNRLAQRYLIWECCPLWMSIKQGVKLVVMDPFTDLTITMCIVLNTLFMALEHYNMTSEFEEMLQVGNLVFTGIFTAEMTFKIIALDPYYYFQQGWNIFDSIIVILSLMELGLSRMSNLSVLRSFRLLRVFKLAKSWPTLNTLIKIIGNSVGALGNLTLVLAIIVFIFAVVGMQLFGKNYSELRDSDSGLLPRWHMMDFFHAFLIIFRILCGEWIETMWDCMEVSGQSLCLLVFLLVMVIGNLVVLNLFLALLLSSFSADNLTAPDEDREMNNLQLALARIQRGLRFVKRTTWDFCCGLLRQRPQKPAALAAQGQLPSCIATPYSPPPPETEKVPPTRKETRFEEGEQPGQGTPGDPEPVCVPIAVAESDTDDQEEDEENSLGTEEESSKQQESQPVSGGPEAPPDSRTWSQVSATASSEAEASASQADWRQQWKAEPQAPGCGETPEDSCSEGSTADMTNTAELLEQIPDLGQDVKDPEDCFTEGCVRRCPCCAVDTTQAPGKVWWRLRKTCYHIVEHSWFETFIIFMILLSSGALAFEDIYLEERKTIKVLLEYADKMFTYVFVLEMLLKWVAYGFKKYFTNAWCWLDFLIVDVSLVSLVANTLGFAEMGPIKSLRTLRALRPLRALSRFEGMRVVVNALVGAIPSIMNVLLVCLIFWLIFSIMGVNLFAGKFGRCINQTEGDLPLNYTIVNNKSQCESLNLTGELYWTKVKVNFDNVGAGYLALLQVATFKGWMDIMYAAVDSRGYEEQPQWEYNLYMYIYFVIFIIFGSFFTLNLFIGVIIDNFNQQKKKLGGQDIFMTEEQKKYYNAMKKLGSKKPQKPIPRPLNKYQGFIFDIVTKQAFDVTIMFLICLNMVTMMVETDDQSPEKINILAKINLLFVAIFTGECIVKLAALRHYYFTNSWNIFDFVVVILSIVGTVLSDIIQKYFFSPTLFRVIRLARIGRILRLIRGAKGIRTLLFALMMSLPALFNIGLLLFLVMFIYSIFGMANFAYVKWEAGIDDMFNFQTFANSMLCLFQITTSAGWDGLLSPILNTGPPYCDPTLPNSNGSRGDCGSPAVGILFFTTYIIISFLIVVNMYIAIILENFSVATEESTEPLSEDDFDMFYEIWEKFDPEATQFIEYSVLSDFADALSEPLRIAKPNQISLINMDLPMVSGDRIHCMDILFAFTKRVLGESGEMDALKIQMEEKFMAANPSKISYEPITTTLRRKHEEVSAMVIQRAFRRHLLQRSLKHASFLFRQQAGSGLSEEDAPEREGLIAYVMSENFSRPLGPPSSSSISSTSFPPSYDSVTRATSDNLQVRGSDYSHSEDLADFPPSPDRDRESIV

SMILES	inhibition at 3 µM [1, 2]	inhibition at 3 µM [1, 3]	inhibition at 10 µM (hNaV1.2 (SCN2A))
OCc1cn(-c2noc3ccc(-c4ccc(OC(F)(F)F)cc4)cc23)cn1 [Example 146, (1-(5-(4-(trifluoromethoxy)phenyl)benzo[d]isoxazol-3-yl)-1H-imidazol-4-yl)methanol]	28.8%	25.5%	75.8%
CC(C)(C)c1cn(-c2noc3ccc(-c4ccc(OC(F)(F)F)cc4)cc23)cn1 [Example 143, 3-(4-(tert-butyl)-1H-imidazol-1-yl)-5-(4-(trifluoromethoxy)phenyl)benzo[d]isoxazole]	39.8%	11.2%	57.1%
CC(C)[C@H](N)COc1noc2ccc(-c3ccc(OC(F)(F)F)cc3)cc12 [Example 118, (S)-3-methyl-1-((5-(4-(trifluoromethoxy)phenyl)benzo[d]isoxazol-3-yl)oxy)butan-2-amine]	88.8%	56.1%	90.4%
Cc1nnc(C(C)Oc2noc3ccc(-c4ccc(OC(F)(F)F)cc4)cc23)o1 (centres unmarked) [Example 153, 3-(1-(5-methyl-1,3,4-oxadiazol-2-yl)ethoxy)-5-(4-(trifluoromethoxy)phenyl)benzo[d]isoxazole]	57.6%	–	53.7%
O=C1CCCN1CCOc1noc2ccc(-c3ccc(OC(F)(F)F)cc3)cc12 [Example 59, 1-(2-((5-(4-(trifluoromethoxy)phenyl)benzo[d]isoxazol-3-yl)oxy)ethyl)pyrrolidin-2-one]	19%	< 5%	37.4%
FC(F)(F)Oc1ccc(-c2ccc3onc(-n4cncn4)c3c2)cc1 [Example 136, 3-(1H-1,2,4-triazol-1-yl)-5-(4-(trifluoromethoxy)phenyl)benzo[d]isoxazole]	10.5%	< 5%	< 5%
Nc1noc2ccc(-c3ccc(OC(F)(F)F)cc3)cc12 [Example 147, 5-(4-(trifluoromethoxy)phenyl)benzo[d]isoxazol-3-amine]	26%	3%	20.4%
CN1CCC[C@H]1COc1noc2ccc(-c3ccc(OC(F)(F)F)cc3)cc12 [Example 71, (S)-3-((1-methylpyrrolidin-2-yl)methoxy)-5-(4-(trifluoromethoxy)phenyl)benzo[d]isoxazole]	61.1%	44.4%	89.6%
Cc1nnc(COc2noc3ccc(-c4ccc(OC(F)(F)F)cc4)cc23)s1 [Example 101, 3-((5-methyl-1,3,4-thiadiazol-2-yl)methoxy)-5-(4-(trifluoromethoxy)phenyl)benzo[d]isoxazole]	13.5%	< 5%	30.5%
Cc1cc(OC(F)(F)F)ccc1-c1ccc2onc(OCc3ncccn3)c2c1 [Example 3, 5-(2-methyl-4-(trifluoromethoxy)phenyl)-3-(pyrimidin-2-ylmethoxy)benzo[d]isoxazole]	23.2%	11.8%	< 5%
Cc1cnc(COc2noc3ccc(-c4ccc(OC(F)(F)F)cc4)cc23)cn1 [Example 73, 3-((5-methylpyrazin-2-yl)methoxy)-5-(4-(trifluoromethoxy)phenyl)benzo[d]isoxazole]	41.9%	< 5%	< 5%
FC(F)(F)Oc1ccc(-c2ccc3onc(OCc4cccnn4)c3c2)cc1 [Example 74, 3-(pyridazin-3-ylmethoxy)-5-(4-(trifluoromethoxy)phenyl)benzo[d]isoxazole]	23.5%	< 5%	< 5%
COc1cc2onc(OCc3ncccn3)c2cc1-c1ccc(Cl)c(F)c1 [Example 13, 5-(4-chloro-3-fluorophenyl)-6-methoxy-3-(pyrimidin-2-ylmethoxy)benzo[d]isoxazole]	10.7%	< 5%	5.6%
CN(C)c1noc2ccc(-c3ccc(OC(F)(F)F)cc3)cc12 [Example 133, N,N-dimethyl-5-(4-(trifluoromethoxy)phenyl)benzo[d]isoxazol-3-amine]	38.8%	5.2%	29.2%
Fc1cccnc1COc1noc2ccc(-c3ccc(OC(F)(F)F)cc3)cc12 [Example 94, 3-((3-fluoropyridin-2-yl)methoxy)-5-(4-(trifluoromethoxy)phenyl)benzo[d]isoxazole]	17.1%	< 5%	< 5%
Fc1cc(-c2ccc3onc(OCc4ncccn4)c3c2)ccc1Cl [Example 8, 5-(4-chloro-3-fluorophenyl)-3-(pyrimidin-2-ylmethoxy)benzo[d]isoxazole]	13.1%	< 5%	< 5%
C[C@@H](N)COc1noc2ccc(-c3ccc(OC(F)(F)F)cc3)cc12 [Example 117, (R)-1-((5-(4-(trifluoromethoxy)phenyl)benzo[d]isoxazol-3-yl)oxy)propan-2-amine]	79.3%	60.8%	88.4%
O=C(COc1noc2ccc(-c3ccc(OC(F)(F)F)cc3)cc12)N1CCCC1 [Example 121, 1-(pyrrolidin-1-yl)-2-((5-(4-(trifluoromethoxy)phenyl)benzo[d]isoxazol-3-yl)oxy)ethan-1-one]	79%	23.4%	57.8%
FC(F)(F)Oc1ccc(-c2ccc3onc(N4CCOCC4)c3c2)cc1 [Example 130, 3-morpholino-5-(4-(trifluoromethoxy)phenyl)benzo[d]isoxazole]	9.2%	< 5%	< 5%
FC(F)(F)Oc1ccc(-c2ccc3onc(NCc4ncccn4)c3c2)cc1 [Example 126, N-(pyrimidin-2-ylmethyl)-5-(4-(trifluoromethoxy)phenyl)benzo[d]isoxazol-3-amine]	17.3%	< 5%	< 5%
CC(=O)N1CCC[C@H]1COc1noc2ccc(-c3ccc(OC(F)(F)F)cc3)cc12 [Example 109, (S)-1-(2-(((5-(4-(trifluoromethoxy)phenyl)benzo[d]isoxazol-3-yl)oxy)methyl)pyrrolidin-1-yl)ethan-1-one]	14.5%	< 5%	39.3%
FC(F)(F)Oc1ccc(-c2ccc3onc(NCCn4cncn4)c3c2)cc1 [Example 137, N-(2-(1H-1,2,4-triazol-1-yl)ethyl)-5-(4-(trifluoromethoxy)phenyl)benzo[d]isoxazol-3-amine]	43.9%	17.4%	86%
COc1cc2onc(OCc3ncccn3)c2cc1-c1ccc(OC(F)(F)F)c(C)c1 [Example 14, 6-methoxy-5-(3-methyl-4-(trifluoromethoxy)phenyl)-3-(pyrimidin-2-ylmethoxy)benzo[d]isoxazole]	23.8%	6.4%	9.6%
Cc1cc(-c2ccc(OC(F)(F)F)cc2)cc2c(OCc3cn(C)nn3)noc12 [Example 87, 7-methyl-3-((1-methyl-1H-1,2,3-triazol-4-yl)methoxy)-5-(4-(trifluoromethoxy)phenyl)benzo[d]isoxazole]	54.7%	39%	87%
FC(F)(F)Oc1ccc(-c2ccc3onc(OCc4ncco4)c3c2)cc1 [Example 53, 3-(oxazol-2-ylmethoxy)-5-(4-(trifluoromethoxy)phenyl)benzo[d]isoxazole]	43.4%	< 5%	< 5%
N#CCOc1noc2ccc(-c3ccc(OC(F)(F)F)cc3)cc12 [Example 103, 2-((5-(4-(trifluoromethoxy)phenyl)benzo[d]isoxazol-3-yl)oxy)acetonitrile]	18.8%	< 5%	< 5%
